# Measurements: patent US20150217006A1, “AL-F-18-LABELED, AL-F-19-LABELED AND GA-68-LABELED GASTRIN-RELEASING PEPTIDE RECEPTOR (GRPR)-ANTAGONISTS FOR IMAGING OF PROSTATE CANCER” (Immunomedics, Inc., priority 2014, published 2015)
# Where two headings read alike, the source gives them in different places. Residues, ends and D or L forms follow the SMILES beside them.
# Key:
# [1] = tested on: GRPR-positive PC-3 tumors; settings: mouse, in vivo
# Method: (§1) 2-3 weeks after inoculation, when tumor size averaged 200 mm^3, mice were injected intravenously with 5-10 MBq of radiolabeled peptide (200 pmol, 200 μL). To determine the receptor-mediated localization of the radiolabeled peptides, additional animals were co-injected with an excess (20 nmol) of unlabeled peptide. Mice were euthanized 1 h or 2 h post injection (p.i.) by CO2/O2 asphyxiation. Mice were first scanned in prone position on a small animal PET/CT scanner (Inveon; Siemens Preclinical Solutions). PET emission scans were acquired for 30-60 min, followed by a CT scan (spatial resolution 113.15 μm; 80 kV; and 500 μA). Scans were reconstructed using Inveon Acquisition Workplace software (version 1.5; Siemens Preclinical Solutions), using a 3-dimensional ordered-subset expectation maximization/maximization a posteriori algorithm with the following parameters: matrix, 256×256×161; pixel size, 0.40×0.40×0.796 mm; and β-value, 1.5, with uniform variance and FastMAP. After scanning, blood, tumor, and relevant organs and tissues were collected, weighed and counted in a γ-counter. The percentage injected dose per gram (% ID/g) was determined for each tissue sample.
# (§2) Statistical analysis was performed using GraphPad Prism version 5.01 (San Diego, Calif., USA). […] Statistical analysis on biodistribution data was performed using a 1-way ANOVA with a Bonferroni post-hoc test, and the level of significance was set at P less than 0.05.
# [2] = tested on: GRPR-positive PC-3 tumors; assay: Small-animal PET/CT and biodistribution in mice bearing s.c. PC-3 xenografts; settings: for tumor uptake after co-injection of excess unlabeled peptide (GRPR-specificity): co-injection of 100-fold excess of unlabeled JMV4168 or JMV5132
# Method: as §1, §2
# [3] = biological target: T1, PC-3 cells (gastrin-releasing peptide receptor) (Homo sapiens, UniProt P30550); assay: Blocking of 125I-Bombesin binding to PC-3 cells; settings: 56 to 0.44 nM
# T1 construct: 3×10^6 PC-3 cells were exposed to a constant amount (˜50,000 cpms) of ^125I-Bombesin; endogenous in cells; host or cells: PC-3 cells
# T1 sequence (P30550 whole entry): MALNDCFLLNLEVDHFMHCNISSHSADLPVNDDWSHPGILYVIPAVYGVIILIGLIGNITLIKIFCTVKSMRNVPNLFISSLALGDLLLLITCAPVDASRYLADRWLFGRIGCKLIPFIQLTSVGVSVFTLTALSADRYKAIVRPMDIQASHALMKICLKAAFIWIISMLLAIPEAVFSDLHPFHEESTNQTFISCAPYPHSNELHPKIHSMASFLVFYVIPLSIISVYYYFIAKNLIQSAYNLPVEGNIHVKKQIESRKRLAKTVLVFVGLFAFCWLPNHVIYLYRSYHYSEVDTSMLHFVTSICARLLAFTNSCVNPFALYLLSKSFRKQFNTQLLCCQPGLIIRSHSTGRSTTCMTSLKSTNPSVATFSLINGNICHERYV
# Method: A NOTA-conjugated bombesin derivative (IMP468) was prepared as described above. […] Our initial experiment was to determine if IMP468 could specifically block bombesin from binding to PC-3 cells. We used IMP333 as a non-specific control. […] A range of 56 to 0.44 nM was used as our inhibitory concentrations.
# This experiment was repeated using a commercially available BBN peptide.
# [4] = Octanol/water partition coefficient; assay type: physicochemical; settings: pH 7.4, octanol / PBS pH 7.4, n=3; read-out: log P octanol/water
# Method: Octanol/Water Partition Coefficient The radiolabeled peptide (1 MBq) was diluted in 500 μL phosphate-buffered saline (pH 7.4) and mixed vigorously with 500 μL octanol for 2 min using a vortex mixer. The two layers were separated by centrifugation (1000 rpm, 5 min).
# [5] = Small-animal PET/CT and biodistribution in mice bearing s.c. PC-3 xenografts; settings: male, nude BALB/c, mouse, iv, 200 pmol, total radioactivity, 200 pmol
# Method: as §1, §2
# in vivo = settings: male, nude BALB/c, mouse, iv, 200 pmol, total radioactivity, uptake in PC-3 tumors
# Method: as §1, §2
# [6] = male, nude BALB/c, iv, 200 pmol, 2 h
compound,measurement,setting,value
CC(C)C[C@H](NC(=O)C[C@H](O)[C@H](CC(C)C)NC(=O)[C@H](Cc1c[nH]cn1)NC(=O)CNC(=O)[C@@H](NC(=O)[C@H](C)NC(=O)[C@H](Cc1c[nH]c2ccccc12)NC(=O)[C@H](CCC(N)=O)NC(=O)[C@@H](Cc1ccccc1)NC(=O)CCNC(=O)CCNC(=O)Cc1ccc(CN2CCN(CC(=O)O)CCN(CC(=O)O)CC2)cc1)C(C)C)C(N)=O [Al^18F-JMV5132],remaining in blood,[1]; [6],0.05±0.01 % ID/g
same,uptake in PC-3 tumors,[1]; [6],5.30±0.98 % ID/g
same,tumor uptake after co-injection of excess unlabeled peptide (GRPR-specificity),[2],significantly reduced
CSCC[C@H](NC(=O)[C@H](CC(C)C)NC(=O)[C@H](Cc1c[nH]cn1)NC(=O)CNC(=O)[C@@H](NC(=O)[C@H](C)NC(=O)[C@H](Cc1c[nH]c2ccccc12)NC(=O)[C@@H](NC(=O)[C@H](Cc1c[nH]c2ccccc12)NC(=O)[C@H](CCC(N)=O)NC(=O)CCCCCCCNC(=O)CN1CCN(CC(=O)O)CCN(CC(=O)O)CC1)C(C)C)C(C)C)C(N)=O [IMP468] (HELM PEPTIDE1{[O=C(O)CN1CCN(CC(=O)O)CCN(CC(=O)[*:2])CC1].[O=C(CCCCCCCN[*:1])[*:2]].Q.W.V.W.A.V.G.H.L.M.[am]}$$$$V2.0),block the binding of 125I-BBN,[3],could block
"CC(C)C[C@H](NC(=O)C[C@H](O)[C@H](CC(C)C)NC(=O)[C@H](Cc1c[nH]cn1)NC(=O)CNC(=O)[C@@H](NC(=O)[C@H](C)NC(=O)[C@H](Cc1c[nH]c2ccccc12)NC(=O)[C@H](CCC(N)=O)NC(=O)[C@@H](Cc1ccccc1)NC(=O)CCNC(=O)CCNC(=O)CN1CCN(CC(=O)O)CCN(CC(=O)O)CCN(CC(=O)O)CC1)C(C)C)C(N)=O [^68Ga-JMV4168, metal not drawn]",logP,[4],-2.53 ± 0.04
same,tissue uptake at 2 h,"[5]; PC-3 tumor, uptake in PC-3 tumors, 2 h after injection, i.v.",5.96 ± 1.39 %ID/g
same,tissue uptake at 2 h,"[5]; blood, remaining in blood, 2 h p.i.",0.09 ± 0.04 %ID/g
same,pancreas uptake decreased by a factor,[2]; from 1 h to 2 h p.i.,6.1
same,clearance / excretion route,[2]; mice with s.c. PC-3 xenografts,exclusively via the kidney
"CC(C)C[C@H](NC(=O)C[C@H](O)[C@H](CC(C)C)NC(=O)[C@H](Cc1c[nH]cn1)NC(=O)CNC(=O)[C@@H](NC(=O)[C@H](C)NC(=O)[C@H](Cc1c[nH]c2ccccc12)NC(=O)[C@H](CCC(N)=O)NC(=O)[C@@H](Cc1ccccc1)NC(=O)CCNC(=O)CCNC(=O)Cc1ccc(CN2CCN(CC(=O)O)CCN(CC(=O)O)CC2)cc1)C(C)C)C(N)=O [^68Ga-JMV5132, metal not drawn]",remaining in blood,[1]; [6],0.19±0.13 % ID/g
same,clearance / excretion route,[1],partially hepatobiliary
same,tissue uptake at 2 h,in vivo,5.24 ± 0.29 %ID/g
same,tumor uptake after co-injection of excess unlabeled peptide (GRPR-specificity),[2],significantly reduced
